Results taken from ChEMBL document CHEMBL1121746, “Anticoccidial derivatives of 6-azauracil. 4. A 1000-fold enhancement of potency by phenyl sulfide and phenyl sulfone side chains” (J Med Chem, 1981).

Test system: Eimeria tenella
Test: Minimum effective concentration in feed to protect chickens against infections caused by Eimeria tenella
Format: functional
Details: not given

Row | SMILES | MEC
1 | Cc1cc(-n2ncc(=O)[nH]c2=O)cc(C)c1[S+]([O-])c1ccc(Cl)cc1 (stereo not given) | 1 p.p.m.
2 | O=c1cnn(-c2ccc(Sc3ccc(Br)cc3)c(Cl)c2)c(=O)[nH]1 | 2 p.p.m.
3 | CSc1c(Cl)cc(-n2ncc(=O)[nH]c2=O)cc1Cl | 30 p.p.m.
4 | CC(c1ccccc1)S(=O)(=O)c1ccc(-n2ncc(=O)[nH]c2=O)cc1 (stereo not given) | >125 p.p.m.
5 | Cc1cc(-n2ncc(=O)[nH]c2=O)ccc1S(=O)(=O)c1ccc(Br)cc1 | 15 p.p.m.
6 | CCc1cc(-n2ncc(=O)[nH]c2=O)cc(C)c1Sc1ccc(Cl)cc1 | 60 p.p.m.
7 | CS(=O)(=O)c1c(Cl)cc(-n2ncc(=O)[nH]c2=O)cc1Cl | >125 p.p.m.
8 | O=c1cnn(-c2ccc(Sc3ccc(Cl)cc3)c(Cl)c2)c(=O)[nH]1 | 2 p.p.m.
9 | Cc1cc(-n2ncc(=O)[nH]c2=O)cc(C)c1Sc1ccc(Cl)cc1 [TIAZURIL] | 0.5 p.p.m.
10 | CC(C)(C)c1ccc(S(=O)(=O)c2ccc(-n3ncc(=O)[nH]c3=O)cc2)cc1 | >250 p.p.m.
11 | C[S+]([O-])c1c(Cl)cc(-n2ncc(=O)[nH]c2=O)cc1Cl (stereo not given) | >125 p.p.m.
12 | Cc1cc(-n2ncc(=O)[nH]c2=O)cc(Cl)c1Sc1ccc(Cl)cc1 | 0.25 p.p.m.
13 | O=c1cnn(-c2cc(Br)c(Sc3ccc([N+](=O)[O-])cc3)c(Br)c2)c(=O)[nH]1 | 8 p.p.m.
14 | CC(C)(C)c1ccc(Sc2ccc(-n3ncc(=O)[nH]c3=O)cc2Cl)cc1 | >60 p.p.m.
15 | O=c1cnn(-c2ccc(S(=O)(=O)c3ccc(Cl)cc3)c(Cl)c2)c(=O)[nH]1 | 2 p.p.m.
16 | Cc1cc(-n2ncc(=O)[nH]c2=O)cc(C)c1S(=O)(=O)c1ccc(Cl)cc1 | 1 p.p.m.
17 | Cc1cc(-n2ncc(=O)[nH]c2=O)ccc1S(=O)(=O)c1ccc(Cl)cc1 | 2 p.p.m.
18 | O=c1cnn(-c2cc(Cl)c(S(=O)(=O)c3ccc(Cl)cc3)c(Cl)c2)c(=O)[nH]1 | 0.5 p.p.m.
19 | O=c1cnn(-c2ccc(S(=O)(=O)Cc3ccccc3)cc2)c(=O)[nH]1 | >125 p.p.m.

Row | SMILES | MEC
20 | Cc1cc(-n2ncc(=O)[nH]c2=O)ccc1[S+]([O-])c1ccc(Cl)cc1 (stereo not given) | 4 p.p.m.
21 | O=c1cnn(-c2ccc(S(=O)(=O)c3ccc(Cl)cc3)cc2)c(=O)[nH]1 | 4 p.p.m.
22 | O=c1cnn(-c2cc(Cl)c(Sc3ccc(Cl)cc3)c(Cl)c2)c(=O)[nH]1 | 0.25 p.p.m.
23 | O=c1cnn(-c2ccc(Sc3ccc(Cl)cc3)cc2)c(=O)[nH]1 | 4 p.p.m.
24 | Cc1cc(-n2ncc(=O)[nH]c2=O)cc(Cl)c1S(=O)(=O)c1ccc(Cl)cc1 | 15 p.p.m.
25 | O=c1cnn(-c2ccc(S(=O)(=O)c3ccccc3)cc2)c(=O)[nH]1 | 30 p.p.m.
26 | O=c1cnn(-c2cc(Cl)c(Sc3ccc(S(=O)(=O)N4CCOCC4)cc3)c(Cl)c2)c(=O)[nH]1 | >60 p.p.m.
27 | O=c1cnn(-c2ccc(S(=O)(=O)Cc3ccc(Cl)cc3)cc2)c(=O)[nH]1 | 250 p.p.m.
28 | Cc1ccc(S(=O)(=O)c2ccc(-n3ncc(=O)[nH]c3=O)cc2)cc1 | 250 p.p.m.
29 | O=c1cnn(-c2ccc(S(=O)(=O)c3ccc([N+](=O)[O-])cc3)cc2)c(=O)[nH]1 | >250 p.p.m.
30 | O=c1cnn(-c2cc(Cl)c(Sc3ccccc3)c(Cl)c2)c(=O)[nH]1 | 8 p.p.m.
31 | O=c1cnn(-c2ccc(Sc3ccc(Cl)cc3)c([N+](=O)[O-])c2)c(=O)[nH]1 | 60 p.p.m.
32 | O=c1cnn(-c2ccc(Sc3ccc4ccccc4c3)c(Cl)c2)c(=O)[nH]1 | 125 p.p.m.
33 | Cc1ccccc1S(=O)(=O)c1ccc(-n2ncc(=O)[nH]c2=O)cc1 | >125 p.p.m.
34 | O=c1cnn(-c2ccc(Sc3ccc([N+](=O)[O-])cc3)cc2)c(=O)[nH]1 | 30 p.p.m.
35 | COc1cc(-n2ncc(=O)[nH]c2=O)ccc1S(=O)(=O)c1ccc(Cl)cc1 | >125 p.p.m.
36 | Cc1cc(-n2ncc(=O)[nH]c2=O)cc(C)c1Sc1ccc(I)cc1 | 15 p.p.m.
37 | O=c1cnn(-c2ccc(S(=O)(=O)c3ccc(Br)cc3)cc2)c(=O)[nH]1 | 8 p.p.m.
38 | Cc1cc(-n2ncc(=O)[nH]c2=O)ccc1Sc1ccc(Cl)cc1 | 2 p.p.m.

Test system: not listed separately
Test: Plasma half-life in 2 weeks-old chickens
Format: ADME, organism-based, Gallus gallus
Details: chicken

Row | SMILES | half-life
39 | Cc1cc(-n2ncc(=O)[nH]c2=O)ccc1S(=O)(=O)c1ccc(Cl)cc1 | 10 h
40 | O=c1cnn(-c2ccc(S(=O)(=O)c3ccc(Br)cc3)cc2)c(=O)[nH]1 | 19 h

Test system: not listed separately
Test: Plasma half-life in 6-8 weeks old broiler chickens
Format: ADME, organism-based, Gallus gallus
Details: chicken

Row | SMILES | half-life
41 | O=c1cnn(-c2ccc(Sc3ccc(Cl)cc3)c(Cl)c2)c(=O)[nH]1 | 38 h
42 | Cc1cc(-n2ncc(=O)[nH]c2=O)cc(C)c1Sc1ccc(Cl)cc1 [TIAZURIL] | 16 h
43 | Cc1cc(-n2ncc(=O)[nH]c2=O)ccc1S(=O)(=O)c1ccc(Cl)cc1 | 14.5 h
44 | O=c1cnn(-c2cc(Cl)c(Sc3ccc(Cl)cc3)c(Cl)c2)c(=O)[nH]1 | 47 h
45 | Cc1cc(-n2ncc(=O)[nH]c2=O)cc(Cl)c1S(=O)(=O)c1ccc(Cl)cc1 | 26 h
